Assay results from patent US10046150B2, “Lysine delivery systems for blood coagulation” (Park City Bio, LLC, priority 2013, dated 2018).

Test system: nose bleed
Assay: treatment of a nose bleed with a nose plug (tissue, gauze or absorbent body) carrying lysine powder
Format: in vivo
Procedure: As a control, regular tissue and regular gauze were used to treat a nose bleed by rolling or otherwise fashioning a nose plug from the materials, and no lysine was added. The tissues and gauze appear to absorb the blood, but the blood continues to flow. In some instances, the blood flow can be significant and require a large number of sequential tissues or gauze. Nose bleeds treated with tissues can last 10 minutes or more up to an hour or longer when the bleed is significant. In some instances a nose bleed can be from both nostrils and both nostrils have to be plugged with a nose plug.
The nose bleed often stops within 1 minute when the tissue includes lysine, compared a long period when only tissues are used. A significant bleed was stopped within 5 minutes when lysine was included in the gauze. […] Available lysine was present after the nose bleed was treated to stop blood flow. […] Accordingly, substantially less than 500 mg lysine (E.g., 5 mg) is needed to stop bleeding in a short time. The device including the tissue and the lysine powder is able to be withdrawn with the blood no longer flowing through the nose.
Additionally, there was still excess powder. The gauze was rolled up with the lysine powder at one end, and the lysine powder was inserted into the nose, then the gauze was released and allowed to expand and plug the nose.
FIG. 12—illustrate an embodiment of a method of making a blood coagulating device with a lysine reservoir. […] The gauze is not hemostatic (Walgreens Premium Rolled Gauze—for secure dressings and light absorption. The device is made by: forming an absorptive body to a size and shape of a sheet; placing lysine powder on a surface of the sheet, where the lysine may be anywhere, but shown to be placed along a center crease. Adhesive is used to stick the surface to itself when the substrate is folded at the center crease so that the folded body has the lysine at the fold. The additional adhesive is put on the surface that is showing, and the sheet is rolled into a cylindrical device. The device has the lysine in a multi-layered chamber with the lysine located at one end. […] The marked end of the controls is not inserted in the nose.

NCCCC[C@H](N)C(=O)O [lysine]
time until the nose bleed stopped (hemostat gauze (regenerated etherized and oxidized natural fiber cellulose) having about 250 mg lysine powder, slower bleed): within a minute | time until the gauze could be removed (hemostat gauze having about 250 mg lysine powder, slower bleed): just over a minute | effect on blood flow / bleeding (in words) (nose bleed): promotes clotting | blood absorbed by the device (in words) (nose bleed, compared with control without lysine where stated): didn't absorb much blood
